In patent US20040209778A1, “Lactone derivative, and plant growth regulator and rooting agent each containing the same as active ingredient” (priority 2001, published 2004):

Experiments:
[1] = system: adventitious roots of Bupleurum falcatum L.; test: Rooting test using Bupleurum falcatum L. (1); type: cell-based; conditions: for Weight of Freeze-dried Roots: day 24, 0.2 g roots planted
Description: In order to evaluate rooting activity, adventitious roots of Bupleurum falcatum L. were employed. The adventitious roots were obtained by growing the roots of aseptic seedlings by use of IBA. The developed roots were cultured at 23° C. in a B5 liquid medium containing 5 mg/L IBA (for 3 weeks) and in the corresponding B5 liquid medium with no IBA (for 6 weeks) in an alternate manner. The inoculation amount of the roots was 5 g/L, the incubation temperature was 23° C., and subculture was performed in the dark under shaking conditions of 100 rpm. In the rooting test, adventitious roots cultured in IBA-free medium were employed. B5 medium (30-mL) was placed in a 100 mL flask, followed by planting of the roots of Bupleurum falcatum L. (0.2 g) under aseptic conditions. The present lactone derivative, prepared in 10,000 ppm, was added to the flask so as to attain the concentration of 4 ppm or 8 ppm. A sample containing a 4 ppm (final concentration) IBA solution and a sample containing a 8 ppm (final concentration) IBA solution were employed as positive controls, and a corresponding IBA-free sample was employed as a control. Respective samples were cultured under shaking at 100 rpm at 23° C. in the dark, and on day 24, the extent of rooting was checked. The roots were freeze-dried and the weight thereof was measured.

[2] = system: adventitious roots of Bupleurum falcatum L.; test: Rooting test using Bupleurum falcatum L. (2); type: cell-based; conditions: for Number of Lateral Roots: per unit length (2 cm) of planted root, average of 3 measurements
Description: In order to evaluate rooting activity, adventitious roots of Bupleurum falcatum L. were employed. The adventitious roots were obtained by growing the roots of aseptic seedlings by use of IBA. The developed roots were cultured at 23° C. in a B5 liquid medium containing 5 mg/L IBA (for 3 weeks) and in the corresponding B5 liquid medium with no IBA (for 6 weeks) in an alternate manner. The inoculation amount of the roots was 5 g/L, the incubation temperature was 23° C., and subculture was performed in the dark under shaking conditions of 100 rpm.
In the rooting test, adventitious roots cultured in IBA-free medium were employed. B5 medium (30-mL) was placed in a 100 mL flask, followed by planting of the roots of Bupleurum falcatum L. (0.2 g) under aseptic conditions. The present lactone derivative, prepared in 10,000 ppm, was added to the flask so as to attain the concentration of 4 ppm or 8 ppm. A sample containing a 4 ppm (final concentration) IBA solution and a sample containing a 8 ppm (final concentration) IBA solution were employed as positive controls, and a corresponding IBA-free sample was employed as a control. Respective samples were cultured under shaking at 100 rpm at 23° C. in the dark, and on day 24, the extent of rooting was checked. The roots were freeze-dried and the weight thereof was measured.
The general procedure of the above-described rooting test (1) was followed, except that there were employed, as positive controls, samples containing the novel auxin metabolite (Fb) disclosed in Japanese Patent Application Laid-Open (kokai) No. 10-77268, at 4 ppm and 8 ppm (both final concentration).
The number of lateral roots was determined by averaging 3 measurements of the number of the lateral roots appearing per unit length (2 cm) of the planted root.

For `O=C(O)CCCc1c[nH]c2ccccc12` [IBA, indolebutyric acid, reference compound], which “Weight of Freeze-dried Roots” value ([1]; 4 ppm final concentration) is on record?
Its value is 0.31 g.

What about the “Weight of Freeze-dried Roots” value ([1]; 8 ppm final concentration) of the same compound?
Its value is 0.37 g.

For `O=C1CCC(c2cc3ccccc3o2)O1` (stereo not drawn) [Compound 1, 5-(1-Benzofuran-2-yl)dihydro-2(3H)-furanone], which “Weight of Freeze-dried Roots” value ([1]; 4 ppm final concentration) is on record?
The value was 0.37 g.

What about the “Weight of Freeze-dried Roots” value ([1]; 8 ppm final concentration) of the same compound?
Its value is 0.35 g.

For `O=C1CCC(c2csc3ccccc23)O1` (stereo not drawn) [Compound 2, 5-(1-Benzothiophen-3-yl)dihydro-2(3H)-furanone], which rooting activity ([2]; 4 ppm and 8 ppm, compared with Fb as positive control) is on record?
The rooting activity was “rooting activity stronger than Fb”.

What about the “Weight of Freeze-dried Roots” value ([2]; 4 ppm final concentration) of the same compound?
Its value is 0.31 g.

What about the “Number of Lateral Roots” value ([2]; 4 ppm final concentration) of the same compound?
The value was 30.0.

And the “Weight of Freeze-dried Roots” value ([2]; 8 ppm final concentration)?
Its value is 0.45 g.

What about the “Number of Lateral Roots” value ([2]; 8 ppm final concentration) of the same compound?
The value was 43.3.

What about the rooting activity ([1]; 4 ppm and 8 ppm, compared with IBA as positive control) of the same compound?
Its rooting activity is “rooting activity stronger than IBA”.

What about the “Weight of Freeze-dried Roots” value ([1]; 4 ppm final concentration) of the same compound?
Its value is 0.36 g.

And the “Weight of Freeze-dried Roots” value ([1]; 8 ppm final concentration)?
The value was 0.41 g.
